What was measured:
[1] = tested on: 5-LO; experiment: Test g) LTB4 liberation induced by zymosan within an air pouch in male rats; type: in vivo; settings: 3 h; test g), rat air pouch, oral
Protocol: g) An in vivo system involving measuring the effects of a test compound administered orally against the liberation of LTB4 induced by zymosan within an air pouch generated within the subcutaneous tissue of the back of male rats. The rats are anaesthetised and air pouches are formed by the injection of sterile air (20 ml). A further injection of air (10 ml) is similarIv given after 3 days. At 6 days after the initial air injection the test compound is administered (usually orally as the suspension produced when a solution of the test compound in dimethylsulphoxide is added to hydroxypropylmethylcellulose), followed by the intrapouch injection of zymosan (1 ml of a 1% suspension in physiological saline). After 3 hours the rats are killed, the air pouches are lavaged with physiological saline, and the specific radioimmunoassay described above is used to assay LTB4 in the washings. This test provides an indication of inhibitory effects against 5-LO in an inflammatory milieu.

[2] = tested on: 5-LO; experiment: Test b) LTB4 in heparinised human blood challenged with calcium ionophore A23187 (radioimmunoassay); type: cell-based
Protocol: b) An in vitro assay system involving incubating a test compound with heparinised human blood, prior to challenge with the calcium ionophore A23187 and then indirectly measuring the inhibitory effects on 5-LO by assaying the amount of LTB4 using specific radioimmunoassays described by Carey and Forder (F. Carey and R. A. Forder, Prostaglandins, Leukotrienes Med., 1986, 22, 57; Prostaglandins, 1984, 28, 666; Brit. J. Pharmacol. 1985, 84, 34P) which involve the use of a protein-LTB4 conjugate produced using the procedure of Young et alia (Prostaglandins, 1983, 26(4), 605-613). The effects of a test compound on the enzyme cyclooxygenase (which is involved in the alternative metabolic pathway for arachidonic acid and gives rise to prostaglandins, thromboxanes and related metabolites) may be measured at the same time using the specific radioimmunoassay for thromboxane B2 (TxB2) described by Carey and Forder (see above). This test provides an indication of the effects of a test compound against 5-LO and also cyclooxygenase in the presence of blood cells and proteins. It permits the selectivity of the inhibitory effect on 5-LO or cyclooxygenase to be assessed.

Row | SMILES | ED50 [1] [mg/kg] | IC50 [2] [nM]
1 | COC1(c2ccc(Sc3ccc(C(C)(C)C)cc3)s2)CCOCC1 [4-[5-(4-tert-butylphenylthio)thien-2-yl]-4-methoxytetrahydropyran] | 1.5 | 150
2 | COC1(c2ccc(Sc3ccc4c(c3)CCC(=O)N4C)s2)CCOCC1 [4-methoxy-4-[5-(1-methyl-2-oxo-1,2,3,4-tetrahydroquinolin-6-ylthio)thien-2-yl]tetrahydropyran] | < 1.5 | 40
